SMILES strings stand for the structures.

Holding throughout (format): cell-based
The target in assay [1] is T1, human IGF-1R (NIH-3T3 cells over expressing human IGF-1R) (Homo sapiens, UniProt P08069).
T1 construct: expressed in transfected cells; host or cells: NIH-3T3 (mouse fibroblasts)
As to the kind of experiment: IGF-1R cellular autophosphorylation (DELFIA). The settings on record: IGF-1 stimulated. The procedure, abridged:
(§1)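 Receptor-overexpressing NIH-3T3, 10% FBS, 37 °C; cpd 30 uM–1.5 nM × 2 h; stim IGF-1 30 ng/mL (IGF-1R) or insulin 3 ug/mL (IR), 15 min; lysate DELFIA, Eu anti-pTyr; % of stimulated signal.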

Assay [2] deals with T2, IR (NIH-3T3 cells over expressing human IGF-1R or IR) (Homo sapiens, UniProt P06213).
T2 construct: expressed in transfected cells; host or cells: NIH-3T3 (mouse fibroblasts)
T2 sequence (P06213 28-1382): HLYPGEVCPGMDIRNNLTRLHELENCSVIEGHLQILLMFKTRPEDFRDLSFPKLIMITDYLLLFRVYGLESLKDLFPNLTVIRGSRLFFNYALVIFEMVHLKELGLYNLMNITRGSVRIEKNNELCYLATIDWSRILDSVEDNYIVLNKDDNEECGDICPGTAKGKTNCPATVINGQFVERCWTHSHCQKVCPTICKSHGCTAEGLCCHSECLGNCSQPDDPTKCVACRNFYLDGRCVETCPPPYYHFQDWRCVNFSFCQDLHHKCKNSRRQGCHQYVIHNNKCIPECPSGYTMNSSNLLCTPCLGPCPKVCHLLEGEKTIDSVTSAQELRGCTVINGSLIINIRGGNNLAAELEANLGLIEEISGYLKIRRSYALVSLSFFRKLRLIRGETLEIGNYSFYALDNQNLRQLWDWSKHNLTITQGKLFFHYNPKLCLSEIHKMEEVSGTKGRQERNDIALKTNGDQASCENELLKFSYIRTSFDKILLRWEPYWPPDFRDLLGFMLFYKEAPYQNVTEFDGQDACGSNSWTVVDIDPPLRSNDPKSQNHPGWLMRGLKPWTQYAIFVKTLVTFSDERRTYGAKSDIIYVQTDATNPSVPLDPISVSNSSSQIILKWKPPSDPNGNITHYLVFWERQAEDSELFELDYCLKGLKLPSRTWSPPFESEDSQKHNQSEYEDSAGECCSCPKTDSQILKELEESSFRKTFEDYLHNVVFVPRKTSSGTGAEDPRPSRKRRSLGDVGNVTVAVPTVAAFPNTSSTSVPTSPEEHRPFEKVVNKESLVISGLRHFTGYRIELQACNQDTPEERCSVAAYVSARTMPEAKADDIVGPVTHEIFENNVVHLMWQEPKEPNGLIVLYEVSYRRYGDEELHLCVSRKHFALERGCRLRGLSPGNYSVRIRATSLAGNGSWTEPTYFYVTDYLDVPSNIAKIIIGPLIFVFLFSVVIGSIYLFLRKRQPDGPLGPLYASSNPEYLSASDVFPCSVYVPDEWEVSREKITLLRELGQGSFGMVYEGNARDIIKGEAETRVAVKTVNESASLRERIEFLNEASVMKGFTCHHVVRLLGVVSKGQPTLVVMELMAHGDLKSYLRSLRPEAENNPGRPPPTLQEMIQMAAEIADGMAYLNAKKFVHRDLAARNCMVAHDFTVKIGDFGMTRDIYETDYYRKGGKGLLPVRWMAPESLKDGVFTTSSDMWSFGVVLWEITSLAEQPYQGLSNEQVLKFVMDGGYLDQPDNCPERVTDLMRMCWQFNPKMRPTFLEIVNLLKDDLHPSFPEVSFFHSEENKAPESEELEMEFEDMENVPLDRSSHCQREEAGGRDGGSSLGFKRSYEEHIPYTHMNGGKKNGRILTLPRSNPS
Put plainly: IR cellular autophosphorylation (DELFIA). The note with it: NIH-3T3 cells over expressing IR, insulin stimulated. The procedure, abridged: as §1

Assay [3] concerns NCI-H929 (multiple myeloma). Put plainly: Inhibition of cell proliferation, CellTiter-Glo, NCI-H929. The note with it: Homo sapiens, 72 h. The procedure:
C. Inhibition of Cell Proliferation
Cell proliferation was measured by either CellTiter-Glo (measures cellular ATP level as a surrogate for total cell number) or by InCell analyzer (counts number of nuclei as a measure of cell number). For CellTiter-Glo assay, exponentially growing cell lines of different tumor origins, cultured in appropriate media containing 10% fetal bovine serum at 37° C. in a 5% CO2 incubator, were plated at low density (less than 2000 cells/well) in 96-well plates. Twenty four hours post-plating, cells were treated with different concentrations of test compounds ranging from 30 uM to 1.5 nM. Several wells were left untreated as a control. Seventy two hours post-treatment, cell numbers were determined using 50-100 ul per well of CellTiter-Glo (Promega #G7573). Plates were incubated at 37° C. for 30 minutes and the chemiluminescent signal was read on the Victor V or Envison 2100 reader. […]
Background: In ATP-based viability assays light output follows the ATP content of the culture.

The subject of the next assay is COLO205 (colon). As to the kind of experiment: Inhibition of cell proliferation, CellTiter-Glo, COLO205. The settings on record: Homo sapiens, COLO 205, 72 h. The procedure, abridged:
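Exponentially growing COLO205 cells in medium with 10% FBS were plated below 2000 cells/well at 37 °C, 5% CO2. Untreated wells served as controls.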

T1 sequence (P08069 31-1367): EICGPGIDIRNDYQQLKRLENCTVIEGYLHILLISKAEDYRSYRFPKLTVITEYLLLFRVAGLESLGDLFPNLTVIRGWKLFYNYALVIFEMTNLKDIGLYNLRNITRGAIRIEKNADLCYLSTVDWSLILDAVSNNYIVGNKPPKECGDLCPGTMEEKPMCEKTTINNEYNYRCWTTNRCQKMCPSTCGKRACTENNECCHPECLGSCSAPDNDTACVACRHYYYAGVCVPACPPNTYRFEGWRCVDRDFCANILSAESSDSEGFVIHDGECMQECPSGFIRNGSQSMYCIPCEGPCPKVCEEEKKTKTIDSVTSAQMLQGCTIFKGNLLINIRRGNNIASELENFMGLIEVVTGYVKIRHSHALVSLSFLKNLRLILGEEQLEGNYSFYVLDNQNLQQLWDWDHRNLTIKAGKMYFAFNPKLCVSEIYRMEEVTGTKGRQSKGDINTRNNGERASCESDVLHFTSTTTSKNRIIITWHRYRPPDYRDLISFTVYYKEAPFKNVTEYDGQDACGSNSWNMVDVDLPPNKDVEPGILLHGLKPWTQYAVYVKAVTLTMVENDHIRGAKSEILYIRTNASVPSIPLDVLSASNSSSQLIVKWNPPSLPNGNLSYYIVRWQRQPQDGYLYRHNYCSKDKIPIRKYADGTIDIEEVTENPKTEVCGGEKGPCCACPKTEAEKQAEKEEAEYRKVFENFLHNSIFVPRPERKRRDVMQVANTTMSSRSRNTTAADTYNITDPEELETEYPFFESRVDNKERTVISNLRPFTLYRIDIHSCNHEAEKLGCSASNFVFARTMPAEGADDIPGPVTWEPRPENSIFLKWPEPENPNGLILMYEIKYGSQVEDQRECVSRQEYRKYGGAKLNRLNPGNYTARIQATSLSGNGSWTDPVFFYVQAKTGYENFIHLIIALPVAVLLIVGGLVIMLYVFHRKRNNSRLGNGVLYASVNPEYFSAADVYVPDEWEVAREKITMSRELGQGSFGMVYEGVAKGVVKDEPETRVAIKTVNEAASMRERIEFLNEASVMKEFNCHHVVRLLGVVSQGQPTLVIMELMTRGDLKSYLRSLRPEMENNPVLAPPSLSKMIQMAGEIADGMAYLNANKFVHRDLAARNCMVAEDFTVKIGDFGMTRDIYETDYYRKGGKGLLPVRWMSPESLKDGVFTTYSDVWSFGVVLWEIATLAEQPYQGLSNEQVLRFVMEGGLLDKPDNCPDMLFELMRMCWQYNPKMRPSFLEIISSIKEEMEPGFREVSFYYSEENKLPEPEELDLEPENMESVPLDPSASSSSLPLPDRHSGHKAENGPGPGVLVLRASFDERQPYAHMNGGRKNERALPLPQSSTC

What is called IC50 is the midpoint of a concentration-inhibition curve. A lower IC50 goes with inhibition by little substance. Consider `COc1cc(N2CCC(N3CCN(CCF)CC3)CC2)ccc1Nc1nccc(-c2c(-c3cccc(C(=O)Nc4c(F)cccc4F)c3)nc3cc(F)ccn23)n1` [Example 194, N-(2,6-difluorophenyl)-3-[7-fluoro-3-(2-{[4-{4-[4-(2-fluoroethyl)-1-piperazinyl]-1-piperidinyl}-2-(methyloxy)phenyl]amino]-4-pyrimidinyl)imidazo[1,2-a]pyridin-2-yl]benzamide], for which the IC50 in assay [1] is below 100 nM; in assay [2], 100 to 500 nM; in assay [3] it was 250 to 1000 nM; in the assay on COLO205 (colon), 250 to 1000 nM.
Take `COc1cc(N2CCN(S(C)(=O)=O)CC2)ccc1Nc1nccc(-c2c(-c3cccc(C(=O)Nc4c(F)cccc4F)c3)nc3ccccn23)n1` [Example 234, N-(2,6-difluorophenyl)-3-{3-[2-({2-(methyloxy)-4-[4-(methylsulfonyl)-1-piperazinyl]phenyl}amino)-4-pyrimidinyl}imidazo[1,2-a]pyridin-2-yl]benzamide]: the IC50 is below 100 nM in assay [1], below 100 nM in assay [2], below 250 nM in assay [3] and 250 to 1000 nM with COLO205 (colon).
For the compound `COc1cc(N2CCC(N3CCCCC3)CC2)ccc1Nc1nccc(-c2c(-c3ccc(OC)c(C(=O)Nc4c(F)cccc4F)c3)nc3cc(F)ccn23)n1` [Example 198, 5-[3-(2-{[4-(1,4′-bipiperidin-1′-yl)-2-(methyloxy)phenyl]amino}-4-pyrimidinyl)-7-fluoroimidazo[1,2-a]pyridin-2-yl]-N-(2,6-difluorophenyl)-2-(methyloxy)benzamide], the concentration for half-maximal inhibition (IC50) in assay [1] is below 100 nM; in assay [2], below 100 nM; in assay [3] it was below 250 nM; with COLO205 (colon), 250 to 1000 nM.
As to `COc1cc(N2CCC(N3CCN(S(C)(=O)=O)CC3)CC2)ccc1Nc1nccc(-c2c(-c3ccc(OC(C)C)c(C(=O)Nc4c(F)cccc4F)c3)nc3ccccn23)n1` [Example 227, N-(2,6-difluorophenyl)-2-[(1-methylethyl)oxy]-5-(3-{2-[(2-(methyloxy)-4-{4-[4-(methylsulfonyl)-1-piperazinyl]-1-piperidinyl}phenyl)amino]-4-pyrimidinyl}imidazo[1,2-a]pyridin-2-yl)benzamide], the IC50 in assay [1] is below 100 nM; in assay [2] it was below 100 nM; in assay [3] it was below 250 nM; in the assay on COLO205 (colon), below 250 nM.
Regarding `CCOc1cc(N2CCN(CCS(C)(=O)=O)CC2)c(CC)cc1Nc1nccc(-c2c(-c3ccc(OCC)c(C(=O)Nc4c(F)cccc4F)c3)nc3ccccn23)n1` [Example 211, N-(2,6-difluorophenyl)-5-(3-{2-[(5-ethyl-2-(ethyloxy)-4-{4-[2-(methylsulfonyl)ethyl]-1-piperazinyl}phenyl)amino]-4-pyrimidinyl}imidazo[1,2-a]pyridin-2-yl)-2-(ethyloxy)benzamide], the concentration for half-maximal inhibition (IC50) in assay [1] was below 100 nM; in assay [2], below 100 nM; in assay [3] it was below 250 nM; in the assay with COLO205 (colon), below 250 nM.
Take `COc1cc(N2CCN(S(C)(=O)=O)CC2)ccc1Nc1nccc(-c2c(-c3ccc(OC)c(C(=O)Nc4c(F)cccc4F)c3)nc3ccccn23)n1` [Example 233, N-(2,6-difluorophenyl)-2-(methyloxy)-5-{3-[2-({2-(methyloxy)-4-[4-(methylsulfonyl)-1-piperazinyl]phenyl}amino)-4-pyrimidinyl]imidazo[1,2-a]pyridin-2-yl}benzamide]: the concentration for half-maximal inhibition (IC50) was below 100 nM in assay [1], below 100 nM in assay [2], below 250 nM in assay [3] and 250 to 1000 nM with COLO205 (colon).
For the compound `COc1cc(N2CCC(N3CCN(CCS(C)(=O)=O)CC3)CC2)ccc1Nc1nccc(-c2c(-c3cccc(C(=O)Nc4c(F)cccc4F)c3)nc3ccccn23)n1` [Example 59, N-(2,6-difluorophenyl)-3-[3-(2-{[2-(methyloxy)-4-(4-{4-[2-(methylsulfonyl)ethyl]-1-piperazinyl}-1-piperidinyl)phenyl]amino}-4-pyrimidinyl)imidazo[1,2-a]pyridin-2-yl]benzamide], the half-maximal inhibitory concentration (IC50) in assay [1] was below 100 nM; in assay [2], below 100 nM; in assay [3], below 250 nM; in the assay on COLO205 (colon) it was 250 to 1000 nM.
On to `CCCN1CCC(c2ccc(Nc3nccc(-c4c(-c5cccc(C(=O)Nc6c(F)cccc6F)c5)nc5ccccn45)n3)c(OC)c2)CC1` [Example 138, N-(2,6-difluorophenyl)-3-[3-(2-{[2-(methyloxy)-4-(1-propyl-4-piperidinyl)phenyl]amino}-4-pyrimidinyl)imidazo[1,2-a]pyridin-2-yl]benzamide], for which the half-maximal inhibitory concentration (IC50) in assay [1] is below 100 nM; in assay [2], below 100 nM; in assay [3] it was below 250 nM; with COLO205 (colon), 250 to 1000 nM.
As to `CCOc1ccc(-c2nc3ccccn3c2-c2ccnc(Nc3cc(C)c(N4CCN(CCOC)CC4)cc3OC)n2)cc1C(=O)Nc1c(F)cccc1F` [Example 241, N-(2,6-difluorophenyl)-2-(ethyloxy)-5-(3-{2-[(5-methyl-2-(methyloxy)-4-{4-[2-(methyloxy)ethyl]-1-piperazinyl}phenyl)amino]-4-pyrimidinyl}imidazo[1,2-a]pyridin-2-yl)benzamide], the IC50 in assay [1] is below 100 nM; in assay [2] it was below 100 nM; in assay [3], below 250 nM; in the assay on COLO205 (colon), 250 to 1000 nM.
On to `COc1cc(C2CCN(C3CCN(CCF)CC3)CC2)ccc1Nc1nccc(-c2c(-c3cccc(C(=O)Nc4c(F)cccc4F)c3)nc3ccccn23)n1` [Example 100], for which the half-inhibitory concentration (IC50) is below 100 nM in assay [1], below 100 nM in assay [2], 250 to 1000 nM in assay [3] and 250 to 1000 nM in the assay on COLO205 (colon).
On to `COc1cc(N2CCC(N3CCN(C(C)=O)CC3)CC2)ccc1Nc1nccc(-c2c(-c3cccc(C(=O)Nc4c(F)cccc4F)c3)nc3ccccn23)n1` [Example 70], for which the half-maximal inhibitory concentration (IC50) was below 100 nM in assay [1], below 100 nM in assay [2], below 250 nM in assay [3] and 250 to 1000 nM in the assay on COLO205 (colon).
With `CCOc1cc(N2CCN(CCS(C)(=O)=O)CC2)c(C)cc1Nc1nccc(-c2c(-c3ccc(OCC)c(C(=O)Nc4c(F)cccc4F)c3)nc3ccccn23)n1` [Example 248, N-(2,6-difluorophenyl)-2-(ethyloxy)-5-(3-{2-[(2-(ethyloxy)-5-methyl-4-{4-[2-(methylsulfonyl)ethyl]-1-piperazinyl}phenyl)amino]-4-pyrimidinyl}imidazo[1,2-a]pyridin-2-yl)benzamide], the IC50 in assay [1] is below 100 nM; in assay [2], below 100 nM; in assay [3], below 250 nM; in the assay on COLO205 (colon) it was below 250 nM.
On to `COc1cc(N2CCN3CCOC[C@@H]3C2)ccc1Nc1nccc(-c2c(-c3cccc(C(=O)Nc4c(F)cccc4F)c3)nc3ccccn23)n1` [Example 123], for which the half-maximal inhibitory concentration (IC50) is 100 to 500 nM in assay [1], below 100 nM in assay [2], 250 to 1000 nM in assay [3] and 250 to 1000 nM in the assay with COLO205 (colon).
As for `CCCN1CCC(c2ccc(Nc3nccc(-c4c(-c5cccc(C(=O)Nc6c(F)cccc6F)c5)nc5ccccn45)n3)c(OCC)c2)CC1` [Example 155, N-(2,6-difluorophenyl)-3-[3-(2-{[2-(ethyloxy)-4-(1-propyl-4-piperidinyl)phenyl]amino}-4-pyrimidinyl)imidazo[1,2-a]pyridin-2-yl]benzamide], the concentration for half-maximal inhibition (IC50) was below 100 nM in assay [1], below 100 nM in assay [2], below 250 nM in assay [3] and 250 to 1000 nM in the assay with COLO205 (colon).
With `CCOc1ccc(-c2nc3ccccn3c2-c2ccnc(Nc3cc(C)c(N4CCN(CCS(C)(=O)=O)CC4)cc3OC)n2)cc1C(=O)Nc1c(F)cccc1F` [Example 150, N-(2,6-difluorophenyl)-2-(ethyloxy)-5-(3-{2-[(5-methyl-2-(methyloxy)-4-{4-[2-(methylsulfonyl)ethyl]-1-piperazinyl}phenyl)amino]-4-pyrimidinyl}imidazo[1,2-a]pyridin-2-yl)benzamide], the 50% inhibitory concentration (IC50) in assay [1] was below 100 nM; in assay [2] it was below 100 nM; in assay [3], below 250 nM; in the assay with COLO205 (colon), below 250 nM.
In the case of `COc1cc(N2CCC(N3CCN(S(C)(=O)=O)CC3)CC2)ccc1Nc1nccc(-c2c(-c3ccc(OC)c(C(=O)Nc4c(F)cccc4F)c3)nc3cc(F)ccn23)n1` [Example 199, N-(2,6-difluorophenyl)-5-(7-fluoro-3-{2-[(2-(methyloxy)-4-{4-[4-(methylsulfonyl)-1-piperazinyl]-1-piperidinyl}phenyl)amino]-4-pyrimidinyl}imidazo[1,2-a]pyridin-2-yl)-2-(methyloxy)benzamide], the IC50 was below 100 nM in assay [1], below 100 nM in assay [2], below 250 nM in assay [3] and 250 to 1000 nM in the assay on COLO205 (colon).
In the case of `COc1cc(N2CCC(N3CCN(CCF)C(=O)C3)CC2)ccc1Nc1nccc(-c2c(-c3cccc(C(=O)Nc4c(F)cccc4F)c3)nc3ccccn23)n1` [Example 121, N-(2,6-difluorophenyl)-3-[3-(2-{[4-{4-[4-(2-fluoroethyl)-3-oxo-1-piperazinyl]-1-piperidinyl}-2-(methyloxy)phenyl]amino]-4-pyrimidinyl)imidazo[1,2-a]pyridin-2-yl]benzamide], the IC50 in assay [1] is below 100 nM; in assay [2] it was below 100 nM; in assay [3], below 250 nM; in the assay on COLO205 (colon), 250 to 1000 nM.

For the origin of these results see patent US20100216779A1 (GLAXOSMITHKLINE LLC, priority 2007, published 2010).
